Results reported in ChEMBL document CHEMBL1201862, “PubChem BioAssay data set” (2004).
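Method: 48-hour compound exposure of cells in 96-well plates, five concentrations, linear interpolation of endpoints. GI50: concentration for 50% inhibition of growth.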 Activity calls are given as the source filed them. Rule as the data show it: active = GI50 up to about 1.1 µM and inactive = higher. Peptide text beside a SMILES is read from it. * marks the point of attachment. OSu = O=C1CCC(=O)N1O*

Experiments:
Assay in all cases: NCI tumour cell line growth inhibition, 48 h
A498 = system: A498
EKVX = system: EKVX
HCT-15 = system: HCT-15
HOP-62 = system: HOP-62
HOP-92 = system: HOP-92
M14 = system: M14
MDA-MB-231 = system: MDA-MB-231
NCI-H23 = system: NCI-H23
NCI-H522 = system: NCI-H522
OVCAR-3 = system: OVCAR-3
OVCAR-4 = system: OVCAR-4
OVCAR-5 = system: OVCAR-5
SF-268 = system: SF-268
SK-OV-3 = system: SK-OV-3
SN12C = system: SN12C
SW-620 = system: SW-620
T47D = system: T47D
UO-31 = system: UO-31
HCC 2998 = system: HCC 2998

Row | Compound | GI50 (A498) | GI50 (EKVX) | GI50 (HCT-15) | GI50 (HOP-62) | GI50 (HOP-92) | GI50 (M14) | GI50 (MDA-MB-231) | GI50 (NCI-H23) | GI50 (NCI-H522) | GI50 (OVCAR-3) | GI50 (OVCAR-4) | GI50 (OVCAR-5) | GI50 (SF-268) | GI50 (SK-OV-3) | GI50 (SN12C) | GI50 (SW-620) | GI50 (T47D) | GI50 (UO-31) | GI50 (HCC 2998)
1 | CCN(CC)CCCC(C)Nc1ccnc2cc3ccccc3cc12 (centres undefined) | 22.6 µM (inactive) | 32.2 µM (inactive) | 3.23 µM | 12.4 µM (inactive) | 12.3 µM (inactive) | 14.6 µM (inactive) | 8.57 µM (inactive) | 14.3 µM (inactive) | 10.4 µM (inactive) | 6.05 µM (inactive) | 3.24 µM (inactive) | 21.7 µM (inactive) | 4.86 µM (inactive) | 8.05 µM (inactive) | 14.2 µM (inactive) | 6.19 µM (inactive) | 12.8 µM (inactive) | 6.32 µM (inactive) | –
2 | CC1=C(C(=O)OCc2ccncc2)C(C2=C(C)SCCS2)C(C(=O)OCc2ccncc2)=C(C)N1 | – | 21.2 µM (inactive) | 25.6 µM | 21.7 µM (inactive) | 12.3 µM (inactive) | 28.7 µM (inactive) | 26.9 µM (inactive) | 24.2 µM (inactive) | 22.8 µM (inactive) | 19.3 µM (inactive) | 38.3 µM (inactive) | 40.7 µM (inactive) | 33 µM (inactive) | 26.6 µM (inactive) | 25.1 µM (inactive) | 25.6 µM (inactive) | 16.1 µM (inactive) | 17.5 µM (inactive) | > 10 µM (inactive)
3 | O=C1C(/N=N/c2ccc(-c3nc4ccccc4o3)cc2)NC(=S)N1c1ccccc1 (centres undefined) | – | 49.3 µM (inactive) | 62.8 µM | > 100 µM (inactive) | 59.6 µM (inactive) | 62.7 µM (inactive) | > 100 µM (inactive) | > 100 µM (inactive) | 60.4 µM (inactive) | 23.6 µM (inactive) | 82 µM (inactive) | > 100 µM (inactive) | > 100 µM (inactive) | > 100 µM (inactive) | 0.692 µM (active) | 32.3 µM (inactive) | 22.9 µM (inactive) | > 100 µM (inactive) | > 100 µM (inactive)
4 | O=C(Nc1nnc(-c2c(Cl)c(Cl)c(Cl)c(Cl)c2-c2nc3cc(C(=O)c4ccccc4)ccc3[nH]2)o1)c1ccc(Cl)cc1 | 18.2 µM (inactive) | 25.9 µM (inactive) | 22.5 µM | 12.8 µM (inactive) | 20.5 µM (inactive) | 35.5 µM (inactive) | 48.6 µM (inactive) | 26.8 µM (inactive) | – | 13.8 µM (inactive) | 24.7 µM (inactive) | > 100 µM (inactive) | – | 40.2 µM (inactive) | 17.9 µM (inactive) | 57 µM (inactive) | 30.5 µM (inactive) | 41.7 µM (inactive) | –
5 | CC(C)(C)c1cc(C2NC(=O)NC2=O)cc(C(C)(C)C)c1O (centres undefined) | > 100 µM (inactive) | > 100 µM (inactive) | 93.3 µM | > 100 µM (inactive) | 38.1 µM (inactive) | > 100 µM (inactive) | 35.6 µM (inactive) | 56.8 µM (inactive) | 32.8 µM (inactive) | 34.1 µM (inactive) | > 100 µM (inactive) | > 100 µM (inactive) | 64.6 µM (inactive) | > 100 µM (inactive) | – | 53.6 µM (inactive) | 46 µM (inactive) | > 100 µM (inactive) | –
6 | CCn1ncc(Oc2c(Cl)cc(N)cc2Cl)c(Cl)c1=O | 47.3 µM (inactive) | 34.9 µM (inactive) | 27.8 µM | 44.9 µM (inactive) | 73.6 µM (inactive) | 30.1 µM (inactive) | 54.6 µM (inactive) | 30.5 µM (inactive) | – | 17.2 µM (inactive) | 54 µM (inactive) | 43.9 µM (inactive) | 31 µM (inactive) | 31.3 µM (inactive) | 79.3 µM (inactive) | 37.2 µM (inactive) | 50.2 µM (inactive) | 47.4 µM (inactive) | 34.7 µM (inactive)
7 | CC(=O)c1cccc(NC(=O)C(=O)C(c2cnc3ccc([N+](=O)[O-])cc3n2)[N+](=O)[O-])c1 (centres undefined) | > 100 µM (inactive) | > 100 µM (inactive) | > 100 µM | > 100 µM (inactive) | > 100 µM (inactive) | 69 µM (inactive) | > 100 µM (inactive) | > 100 µM (inactive) | – | > 100 µM (inactive) | > 100 µM (inactive) | > 100 µM (inactive) | > 100 µM (inactive) | > 100 µM (inactive) | > 100 µM (inactive) | 52.2 µM (inactive) | > 100 µM (inactive) | 38.5 µM (inactive) | 69.8 µM (inactive)
8 | O=C(OCc1ccccc1)c1nc2ccccc2n1S(=O)(=O)c1ccccc1 | > 100 µM (inactive) | > 100 µM (inactive) | > 100 µM | > 100 µM (inactive) | > 100 µM (inactive) | > 100 µM (inactive) | > 100 µM (inactive) | > 100 µM (inactive) | – | > 100 µM (inactive) | > 100 µM (inactive) | > 100 µM (inactive) | > 100 µM (inactive) | > 100 µM (inactive) | > 100 µM (inactive) | > 100 µM (inactive) | 59.2 µM (inactive) | > 100 µM (inactive) | > 100 µM (inactive)
9 | CC(C)(C)OC(=O)N(CCNS(=O)(=O)c1cccc2cnccc12)CCC(=O)ON1C(=O)CCC1=O | – | 6.52 µM (inactive) | > 100 µM | > 100 µM (inactive) | 10.4 µM (inactive) | > 100 µM (inactive) | > 100 µM (inactive) | > 100 µM (inactive) | > 100 µM (inactive) | > 100 µM (inactive) | > 100 µM (inactive) | > 100 µM (inactive) | > 100 µM (inactive) | > 100 µM (inactive) | > 100 µM (inactive) | > 100 µM (inactive) | > 100 µM (inactive) | > 100 µM (inactive) | –
10 | COc1cccc([C@@H]2C/C(=N\NC(=O)C(=O)N[C@@H](C)c3ccccc3)c3ccccc3N2)c1 | > 100 µM (inactive) | 61.4 µM (inactive) | > 100 µM | 76.6 µM (inactive) | 30.5 µM (inactive) | > 100 µM (inactive) | 35.6 µM (inactive) | – | – | > 100 µM (inactive) | 34.8 µM (inactive) | > 100 µM (inactive) | 71 µM (inactive) | > 100 µM (inactive) | > 100 µM (inactive) | 89.5 µM (inactive) | 51.6 µM (inactive) | > 100 µM (inactive) | > 100 µM (inactive)
11 | N#Cc1c(N)nc(-c2ccc(Cl)cc2)c2c1-c1ccccc1S(=O)(=O)CC2 | > 100 µM (inactive) | – | > 100 µM | 35.7 µM (inactive) | > 100 µM (inactive) | > 100 µM (inactive) | > 100 µM (inactive) | 66.2 µM (inactive) | 31 µM (inactive) | > 100 µM (inactive) | 23.2 µM (inactive) | > 100 µM (inactive) | 53.6 µM (inactive) | – | 53.7 µM (inactive) | > 100 µM (inactive) | > 100 µM (inactive) | > 100 µM (inactive) | > 100 µM (inactive)
12 | CC1=NNC(=O)C1C1C(=O)NN=C(c2c[nH]c3ccccc23)C1Br (centres undefined) | > 100 µM (inactive) | 53.5 µM (inactive) | > 100 µM | 40.1 µM (inactive) | > 100 µM (inactive) | 23.2 µM (inactive) | > 100 µM (inactive) | 74.5 µM (inactive) | 16.4 µM (inactive) | 26.3 µM (inactive) | – | > 100 µM (inactive) | 32.7 µM (inactive) | 57.4 µM (inactive) | > 100 µM (inactive) | 40.6 µM (inactive) | 42.1 µM (inactive) | 48 µM (inactive) | –
13 | Nc1nc2c(ncn2C2C=CC(COS(N)(=O)=O)C2)c(=O)[nH]1 (centres undefined) | – | > 100 µM (inactive) | > 100 µM | > 100 µM (inactive) | > 100 µM (inactive) | > 100 µM (inactive) | > 100 µM (inactive) | > 100 µM (inactive) | – | > 100 µM (inactive) | > 100 µM (inactive) | > 100 µM (inactive) | > 100 µM (inactive) | > 100 µM (inactive) | > 100 µM (inactive) | > 100 µM (inactive) | > 100 µM (inactive) | > 100 µM (inactive) | > 100 µM (inactive)
14 | COc1cc2ccccc2oc1=O | > 100 µM (inactive) | 51.1 µM (inactive) | > 100 µM | 59.8 µM (inactive) | 40 µM (inactive) | 81.7 µM (inactive) | > 100 µM (inactive) | 94.2 µM (inactive) | 32.6 µM (inactive) | 74.5 µM (inactive) | > 100 µM (inactive) | > 100 µM (inactive) | 51.6 µM (inactive) | – | > 100 µM (inactive) | > 100 µM (inactive) | 1.85 µM (inactive) | 39 µM (inactive) | 78.2 µM (inactive)
15 | C=C1C(=O)O[C@H]2C(=O)[C@H](C)CCC/C(C)=C/CC[C@@]3(C)O[C@@H]3C[C@@H]12 | 18.4 µM (inactive) | – | 1.56 µM | 11.6 µM (inactive) | 1 µM (active) | 1.67 µM (inactive) | 10.7 µM (inactive) | 14 µM (inactive) | 1.67 µM (inactive) | 1.74 µM (inactive) | – | 5.6 µM (inactive) | 4.54 µM (inactive) | 16.4 µM (inactive) | 5.53 µM (inactive) | 1.56 µM (inactive) | 2.01 µM (inactive) | 1.62 µM (inactive) | –
16 | NCCCCC(NC(=O)C(N)Cc1ccc(O)cc1)C(=O)NC(CCCCN)C(=O)NC(CCCCN)C(=O)ON1C(=O)CCC1=O (centres undefined) (H-YKKK-OSu; configuration not given here) | > 100 µM (inactive) | > 100 µM (inactive) | > 100 µM | > 100 µM (inactive) | > 100 µM (inactive) | > 100 µM (inactive) | > 100 µM (inactive) | > 100 µM (inactive) | – | – | – | > 100 µM (inactive) | – | – | > 100 µM (inactive) | > 100 µM (inactive) | 49.5 µM (inactive) | > 100 µM (inactive) | > 100 µM (inactive)
